In patent publication US20250375418A1, “1-(NAPHTHALEN-2-YL)-3-AZABICYCLO[3.1.0]HEXANE FOR TREATING MAJOR DEPRESSIVE DISORDER” (OTSUKA PHARMACEUTICAL CO., LTD., priority 2022, published 2025):
Several values for one entry are separate records, joined by “and”; a condition that tells them apart may be missing. Equal values may be shown once. Where a name gives a salt, the structure may show the parent alone. Read-outs that look alike come from different tables or passages of the source.

Columns and labels:
[1] = Plasma pharmacokinetics of a CTN HCl formulation, 164.4 mg dose (Table 11); type: in vivo, human; conditions: for Tmax: median
Method: The plasma pharmacokinetics from a CTN HCl formulation having a dose of 164.4 mg can be as in Table 11.

[2] = Plasma pharmacokinetics of CTN HCl formulation, 164.4 mg or 328.8 mg, First Day and Fifth Day (Table 12); type: in vivo, human; conditions: for AUC ratio / Cmax ratio: Fifth Day/First Day; for Tmax: n = 8, median; for Cmax / AUC(0-t) / concentration at 1 h / concentration at 12 h / concentration at 16 h / AUC(0-inf): n = 8, mean; for AUC(0-t): read-out: AUC0-24 h; for concentration at 1 h: read-out: C1 hr; for concentration at 12 h: read-out: C12 hr; for concentration at 16 h: read-out: C16 hr
Method: The plasma pharmacokinetics from a CTN HCl formulation having a dose of 164.4 mg or 328.8 mg can be as in Table 12.

[3] = Biopharmaceutics classification (solubility, permeability); type: physicochemical
Excerpt: Described herein are methods of using centanafadine (CTN) or a pharmaceutically acceptable salt thereof for the treatment of central nervous system disorders. […] As used herein, CTN should be understood to refer to centanafadine, while pharmaceutically acceptable salts thereof are also considered in addition to or as one or more alternatives to CTN in every method, use, and formulation described herein, unless explicitly stated otherwise. Centanafadine [CAS 924012-43-1], also known chemically as (1R,5S)-1-(naphthalen-2-yl)-3-azabicyclo[3.1.0]hexane or (+)-1-(naphthalen-2-yl)-3-azabicyclo[3.1.0]hexane, has the following structure: […]

[4] = target: norepinephrine reuptake transporter (NET) (Homo sapiens, UniProt P23975); assay: Reuptake transporter inhibition, NET; type: biochemical; conditions: relative among NET, DAT, SERT
Sequence of norepinephrine reuptake transporter (NET) (P23975 whole entry): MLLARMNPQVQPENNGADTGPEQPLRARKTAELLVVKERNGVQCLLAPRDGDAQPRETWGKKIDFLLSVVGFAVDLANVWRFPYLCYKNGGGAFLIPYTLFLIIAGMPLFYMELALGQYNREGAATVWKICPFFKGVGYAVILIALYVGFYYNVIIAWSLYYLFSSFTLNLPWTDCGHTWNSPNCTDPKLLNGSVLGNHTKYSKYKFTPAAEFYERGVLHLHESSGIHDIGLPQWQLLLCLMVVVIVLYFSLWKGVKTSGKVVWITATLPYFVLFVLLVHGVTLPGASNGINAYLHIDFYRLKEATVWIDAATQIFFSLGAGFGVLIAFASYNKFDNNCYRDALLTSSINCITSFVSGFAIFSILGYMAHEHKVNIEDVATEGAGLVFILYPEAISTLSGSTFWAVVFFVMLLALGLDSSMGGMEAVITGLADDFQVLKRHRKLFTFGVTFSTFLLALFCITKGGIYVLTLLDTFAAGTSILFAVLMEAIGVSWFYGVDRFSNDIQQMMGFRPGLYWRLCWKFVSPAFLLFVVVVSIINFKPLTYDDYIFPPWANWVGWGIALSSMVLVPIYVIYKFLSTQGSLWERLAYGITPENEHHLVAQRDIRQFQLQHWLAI
Excerpt: (§1) and is an unbalanced triple reuptake inhibitor with the most potency towards the norepinephrine reuptake transporter (NET), one-sixth as much towards the dopamine reuptake transporter (DAT), and one-fourteenth as much towards the serotonin reuptake transporter (SERT).

[5] = target: dopamine reuptake transporter (DAT) (Homo sapiens, UniProt Q01959); assay: Reuptake transporter inhibition, DAT; type: biochemical
Sequence of dopamine reuptake transporter (DAT) (Q01959 whole entry, species assumed): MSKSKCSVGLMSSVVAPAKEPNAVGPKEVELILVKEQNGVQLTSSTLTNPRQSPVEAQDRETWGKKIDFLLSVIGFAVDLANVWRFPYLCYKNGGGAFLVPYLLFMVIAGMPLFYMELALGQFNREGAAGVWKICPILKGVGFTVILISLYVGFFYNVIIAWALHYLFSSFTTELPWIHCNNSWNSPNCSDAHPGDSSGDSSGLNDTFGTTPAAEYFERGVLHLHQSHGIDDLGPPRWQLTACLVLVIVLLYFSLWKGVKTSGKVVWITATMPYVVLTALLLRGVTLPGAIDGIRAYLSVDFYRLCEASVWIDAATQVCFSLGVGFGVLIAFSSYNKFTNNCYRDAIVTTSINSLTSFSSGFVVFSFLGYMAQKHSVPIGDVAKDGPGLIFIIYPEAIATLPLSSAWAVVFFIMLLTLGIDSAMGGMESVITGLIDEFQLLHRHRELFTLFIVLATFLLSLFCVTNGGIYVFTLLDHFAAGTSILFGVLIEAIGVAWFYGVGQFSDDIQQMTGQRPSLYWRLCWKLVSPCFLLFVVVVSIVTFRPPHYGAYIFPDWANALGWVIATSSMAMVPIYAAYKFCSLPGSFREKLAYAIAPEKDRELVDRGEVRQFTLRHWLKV
Excerpt: as §1

[6] = target: serotonin reuptake transporter (SERT) (Homo sapiens, UniProt P31645); assay: Reuptake transporter inhibition, SERT; type: biochemical
Sequence of serotonin reuptake transporter (SERT) (P31645 whole entry, species assumed): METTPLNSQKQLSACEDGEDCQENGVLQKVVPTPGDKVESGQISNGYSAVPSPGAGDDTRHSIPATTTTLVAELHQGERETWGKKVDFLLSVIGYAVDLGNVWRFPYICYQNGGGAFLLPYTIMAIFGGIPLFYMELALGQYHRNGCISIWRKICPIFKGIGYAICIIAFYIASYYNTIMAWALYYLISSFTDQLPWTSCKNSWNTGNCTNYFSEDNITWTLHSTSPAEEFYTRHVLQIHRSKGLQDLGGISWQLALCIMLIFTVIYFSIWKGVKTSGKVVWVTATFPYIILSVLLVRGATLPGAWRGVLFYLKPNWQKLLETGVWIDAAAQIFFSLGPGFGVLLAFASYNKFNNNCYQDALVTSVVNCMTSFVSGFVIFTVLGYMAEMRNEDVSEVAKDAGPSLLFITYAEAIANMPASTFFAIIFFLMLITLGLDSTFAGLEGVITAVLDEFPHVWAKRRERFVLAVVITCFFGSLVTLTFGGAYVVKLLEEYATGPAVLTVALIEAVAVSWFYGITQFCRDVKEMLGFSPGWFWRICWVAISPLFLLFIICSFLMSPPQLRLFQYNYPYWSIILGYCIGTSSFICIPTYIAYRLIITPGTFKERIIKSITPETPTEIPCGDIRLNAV
Excerpt: as §1

[7] = Safety and tolerability (adverse events); conditions: in vivo
[8] = system: adult subjects with MDD; assay: Phase 2 trial, centanafadine XR as adjunct to escitalopram in MDD (Example 2); type: in vivo, human
Excerpt: Inclusion and Exclusion criteria are the same as Example 1. In addition, subjects who are taking escitalopram or citalopram at the time of screening, have been exposed to escitalopram or citalopram in their current MDE, or have reported an inadequate response to an adequate dose/duration of escitalopram or citalopram in the past, are also excluded.
All subjects receive either escitalopram monotherapy, centanafadine QD XR capsules+escitalopram (combination therapy), or matching placebo, for 6 weeks.
For day 1, the escitalopram tablet is a 10 mg QD dose. At Week 1, dosing increases to 20 mg QD for the remainder of subject participation in the trial.
Subjects assigned to receive escitalopram monotherapy receive a 10 mg QD dose at Day 1. At Week 1, dosing increases to 20 mg QD for the remainder of subject participation in the trial. Dose reductions are not permitted.

[9] = system: adult subjects with MDD; assay: Phase 2 trial, centanafadine XR monotherapy in MDD (Example 1); conditions: 328.8 mg once daily XR
[10] = human, plasma, 164.4 mg, Fifth Day
[11] = human, plasma, 164.4 mg, First Day
[12] = human, plasma, 328.8 mg, First Day
[13] = human, plasma, oral, 164.4 mg, Fifth Day
[14] = human, plasma, oral, 164.4 mg, First Day
[15] = human, plasma, oral, 328.8 mg, Fifth Day
[16] = human, plasma, oral, 328.8 mg, First Day

c1ccc2cc([C@]34CNC[C@H]3C4)ccc2c1 [Centanafadine HCl]
AUC0-24 h [1]: 5290 ng·h/mL
C1 hr [1]: 302 ng/mL and 321 ng/mL and 358 ng/mL
C12 hr [1]: 186 ng/mL and 220 ng/mL and 289 ng/mL
Cmax [1]: 618 ng/mL and 629 ng/mL
Tmax ([1]; human, oral, read-out: tmax): 4 to 7.5 h
AUC(0-inf) ([1]; human, oral, n = 11, read-out: AUC0-inf): 5000 to 8000 ng·h/mL
AUC(0-t) ([1]; human, oral, read-out: AUC0-1 h): 150 to 500 ng·h/mL
AUC(0-t) ([1]; human, oral, read-out: AUC0-24 h): 4500 to 7500 ng·h/mL
Cmax ([1]; human, oral, read-out: Cmax): 500 to 700 ng/mL
Tmax [1]: 4.5 h and 5 h
AUC(0-inf) ([1]; n = 11): 6240 ng·h/mL and 7110 ng·h/mL
AUC ratio ([2]; 164.4 mg): 0.98
Cmax ratio ([2]; 164.4 mg): 1.13
Tmax ([2]; 328.8 mg, Fifth Day): 5.00 h
AUC ratio ([2]; 328.8 mg): 1.16
Cmax ratio ([2]; 328.8 mg): 1.31
Cmax [2, 10]: 709 ng/mL
AUC(0-t) [2, 10]: 6650 ng·h/mL
Cmax [2, 11]: 651 ng/mL
AUC(0-t) [2, 11]: 6570 ng·h/mL
AUC(0-t) ([2]; human, plasma, 328.8 mg, Fifth Day): 18400 ng·h/mL
AUC(0-t) [2, 12]: 16000 ng·h/mL
concentration at 1 h [2, 13]: 427 ng/mL
concentration at 12 h [2, 13]: 276 ng/mL
concentration at 16 h [2, 13]: 103 ng/mL
Tmax ([2]; human, plasma, oral, 164.4 mg, Fifth Day, read-out: tmax): 5.5 h
concentration at 1 h [2, 14]: 358 ng/mL
concentration at 12 h [2, 14]: 289 ng/mL
concentration at 16 h [2, 14]: 133 ng/mL
Tmax ([2]; human, plasma, oral, 164.4 mg, First Day, read-out: tmax): 7 h
Cmax [2, 15]: 2230 ng/mL
concentration at 1 h [2, 15]: 718 ng/mL
concentration at 12 h [2, 15]: 646 ng/mL
concentration at 16 h [2, 15]: 211 ng/mL
Cmax [2, 16]: 1940 ng/mL
concentration at 1 h [2, 16]: 640 ng/mL
concentration at 12 h [2, 16]: 750 ng/mL
concentration at 16 h [2, 16]: 306 ng/mL
Tmax ([2]; human, plasma, oral, 328.8 mg, First Day, read-out: tmax): 4 h
AUC(0-inf) [2, 11]: 7110 ng·h/mL
AUC(0-inf) [2, 12]: 16700 ng·h/mL

c1ccc2cc([C@]34CNC[C@H]3C4)ccc2c1 [Centanafadine, (1R,5S)-1-(naphthalen-2-yl)-3-azabicyclo[3.1.0]hexane]
BSC classification [3]: Class I
solubility [3]: highly soluble
permeability ([3]; not told): highly permeable
potency towards NET [4]: most potency
potency towards DAT relative to NET [5]: one-sixth
potency towards SERT relative to NET [6]: one-fourteenth
safety and tolerability, rate of adverse events (AEs) [7]: generally safe and well tolerated
mean decrease of primary efficacy measures (MADRS Total score) ([8]; 6 weeks combination therapy (centanafadine XR 328.8 mg + escitalopram 10-20 mg QD) vs escitalopram monotherapy): greater
efficacy as adjunct therapy to SSRI (escitalopram) in patients with MDD ([8]; centanafadine XR 328.8 mg + escitalopram, 6 weeks): effective as an adjunct therapy
SF-36v2 general scores from baseline ([9]; 6 weeks): Increased
efficacy as monotherapy in patients with MDD ([9]; 6 weeks): effective as monotherapy
risk for depression (SF-36v2) ([9]; 6 weeks): reduced
CGI-C scores ([9]; 6 weeks, vs placebo): significant reductions
CGI-S scores from baseline ([9]; 6 weeks, vs placebo): significant reductions
PGI-C scores ([9]; 6 weeks, vs placebo): significant reductions
PGI-S scores from baseline ([9]; 6 weeks, vs placebo): significant reductions
primary efficacy measures (MADRS Total score) ([9]; after 6-week double-blind treatment, vs placebo): significantly reduces
